These are literature values, as cited in patent publication US8808745B2 (Egalet Ltd., priority 2001, dated 2014).

The conditions of this series: single dose of 10 mg oral morphine, plain tablet composition.

Consider `CN1CC[C@]23c4c5ccc(O)c4O[C@H]2[C@@H](O)C=C[C@H]3[C@H]1C5` [morphine], for which the “average duration of action” value was 4 to 5 h.
